What was measured:
DPP IV [1] = biological target: T1, DPP IV (Homo sapiens, UniProt P27487); experiment: fluorometric DPP (IV) inhibitor screening kit (Cayman), Gly-Pro-AMC substrate; at […] the effect was only a tendency ([…] < p < […]); format: biochemical
T1 construct: gene DPP4

DPP IV [2] = biological target: T1, DPP IV; experiment: fluorometric DPP (IV) inhibitor screening kit (Cayman), Gly-Pro-AMC substrate; format: biochemical

T1 sequence (P27487 39-766): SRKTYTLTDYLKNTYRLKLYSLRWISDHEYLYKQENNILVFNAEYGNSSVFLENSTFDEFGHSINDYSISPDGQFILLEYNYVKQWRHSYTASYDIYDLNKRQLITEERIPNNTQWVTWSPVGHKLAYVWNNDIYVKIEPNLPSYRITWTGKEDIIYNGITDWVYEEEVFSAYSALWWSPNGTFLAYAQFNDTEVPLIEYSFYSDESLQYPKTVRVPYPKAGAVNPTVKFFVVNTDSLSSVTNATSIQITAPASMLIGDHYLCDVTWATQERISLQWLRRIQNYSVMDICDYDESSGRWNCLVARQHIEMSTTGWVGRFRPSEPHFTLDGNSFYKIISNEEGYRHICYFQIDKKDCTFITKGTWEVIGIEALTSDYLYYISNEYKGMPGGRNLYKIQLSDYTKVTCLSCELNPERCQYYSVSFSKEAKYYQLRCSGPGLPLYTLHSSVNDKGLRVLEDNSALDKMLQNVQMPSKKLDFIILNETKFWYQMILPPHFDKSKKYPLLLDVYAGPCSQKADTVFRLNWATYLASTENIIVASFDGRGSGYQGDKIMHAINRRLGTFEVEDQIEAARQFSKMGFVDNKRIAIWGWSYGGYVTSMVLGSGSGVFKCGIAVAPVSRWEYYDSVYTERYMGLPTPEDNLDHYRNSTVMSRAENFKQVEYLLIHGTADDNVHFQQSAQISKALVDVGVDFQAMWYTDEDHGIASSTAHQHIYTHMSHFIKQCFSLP

IC50 (DPP IV [1]) [µM]	IC50 (DPP IV [2]) [µM]	SMILES
115		CC1(C)[C@H]2CC=C(COc3ccc4c5c(c(=O)oc4c3)CCC5)[C@@H]1C2 [7b, 7-(((1R,5S)-6,6-Dimethylbicyclo [3.1.1]hept-2-en-2-yl)methoxy)-2,3-dihydrocyclopenta[c]chromen-4(1H)-one]
	128	CC(C)=CCC/C(C)=C/COc1ccc2c(-c3ccccc3)cc(=O)oc2c1 [9a, (E)-7-(3,7-Dimethylocta-2,6-dienyloxy)-4-phenyl-2H-chromen-2-one]

Reference: paper PMC9785006, “The Study of Hypoglycemic Activity of 7-Terpenylcoumarins” (Molecules, 2022)
